Measured values from US4404206A, “Substituted iminoacid derivatives, process for preparing them and their use as enzyme inhibitors” (Science Union et Cie, priority 1979, dated 1983).

System: enzyme responsible for the conversion of angiotension I into angiotension II
Test: Inhibition of the angiotensin I pressor response in dogs after intravenous administration (arterial pressure recorded)
Assay type: in vivo
Conditions: dog
Procedure: The compounds of the invention are tested in […] dogs, maintained in forced respiration by an apparatus.
The aorta is catheterized by way of the femoral arteria, and the arterial pressure is registered by an appropriate instrument.
Angiotension I and II are administered to the animals intravenously at the dose of 0.3 γ/Kg. After registering of the dose/activity relation curve, the compounds of the invention are administered also by the intravenous route and modification of the blood pressure is also registered.
The results obtained by the new compounds are summarized in the table hereinafter and are expressed in percentage of inhibition of the enzyme activity. The numbers in the brackets indicate the dose of the active enantiomer contained in the administered doses.

[1] = dose 20 mg/Kg IV, time 15 minutes
[2] = dose 20 mg/Kg IV, time 30 minutes
[3] = dose 20 mg/Kg IV, time 1 h 30 min.
[4] = dose 10 (2,5) mg/Kg IV, time 15 minutes
[5] = dose 10 (2,5) mg/Kg IV, time 30 minutes
[6] = dose 10 (2,5) mg/Kg IV, time 1 h 30 min.
[7] = dose 10 (2,5) mg/Kg IV, time 1 hour
[8] = dose 10 (2,5) mg/Kg IV, time 2 hours
[9] = dose 10 (2,5) mg/Kg IV, time 3 hours

SMILES | Percentage of inhibition (of the enzyme activity) [1] [%] | Percentage of inhibition (of the enzyme activity) [2] [%] | Percentage of inhibition (of the enzyme activity) [3] [%] | Percentage of inhibition (of the enzyme activity) (dose 20 mg/Kg IV, time 1 hour) [%] | Percentage of inhibition (of the enzyme activity) (dose 20 mg/Kg IV, time 2 hours) [%] | Percentage of inhibition (of the enzyme activity) (dose 20 mg/Kg IV, time 3 hours) [%] | Percentage of inhibition (of the enzyme activity) (dose 5 (1,25) mg/Kg IV, time 15 minutes) [%] | Percentage of inhibition (of the enzyme activity) (dose 5 (1,25) mg/Kg IV, time 30 minutes) [%] | Percentage of inhibition (of the enzyme activity) (dose 5 (1,25) mg/Kg IV, time 1 h 30 min.) [%] | Percentage of inhibition (of the enzyme activity) (dose 5 (1,25) mg/Kg IV, time 1 hour) [%] | Percentage of inhibition (of the enzyme activity) (dose 5 (1,25) mg/Kg IV, time 2 hours) [%] | Percentage of inhibition (of the enzyme activity) (dose 5 (1,25) mg/Kg IV, time 3 hours) [%] | Percentage of inhibition (of the enzyme activity) [4] [%] | Percentage of inhibition (of the enzyme activity) [5] [%] | Percentage of inhibition (of the enzyme activity) [6] [%] | Percentage of inhibition (of the enzyme activity) [7] [%] | Percentage of inhibition (of the enzyme activity) [8] [%] | Percentage of inhibition (of the enzyme activity) [9] [%]
CC(CS)C(=O)N1Cc2ccsc2CC1C(=O)O (racemic) [Example 6] | 47 | 51 | 30 | 37 | 26 | 23 |  |  |  |  |  |  |  |  |  |  |  | 
CC(CC(=O)O)C(=O)N1Cc2ccccc2C[C@H]1C(=O)O (mixture of isomers) [Example 9, 2-[3-carboxy 2-(RS)methylpropionyl] 3-(S) carboxy 1,2,3,4-tetrahydroisoquinoline] | 38 | 35 | 25 | 25 | 48 | 25 |  |  |  |  |  |  |  |  |  |  |  | 
C[C@@H](CS)C(=O)N1C2CCCCC2C[C@@H]1C(=O)O (mixture of isomers) [Example 5, N-[3-mercapto 2-(RS)methylpropionyl] 2-(RS) carboxy perhydroindole] |  |  |  |  |  |  | 100 | 100 | 90 | 100 | 71 | 54 | 100 | 92 | 92 | 92 | 92 | 86
C[C@@H](CS)C(=O)N1CC2CCCCC2[C@@H]1C(=O)O (mixture of isomers) [Example 7, N-[3-mercapto 2-(RS)methylpropionyl] 1-(RS) carboxy perhydroisoindole] |  |  |  |  |  |  |  |  |  |  |  |  | 83 | 64 | 48 | 62 | 40 | 26
CC(CS)C(=O)N1C(C(=O)O)CCC2CCCCC21 (racemic) [Example 8, 1-[3 mercapto 2-(RS)methylpropionyl] 2-(RS) carboxy perhydroquinoline.] |  |  |  |  |  |  |  |  |  |  |  |  | 72 | 69 | 50 | 64 | 36 | 31
CC(CS)C(=O)N1CC2CCCCC2CC1C(=O)O (stereo not drawn) [Example 1, 2-(3-mercapto-2-(RS)-methylpropionyl)-cis-perhydroisoquinoline-3-carboxylicacid] | 100 | 100 | 76 | 90 | 70 | 42 |  |  |  |  |  |  |  |  |  |  |  | 
